One data set addresses TrkA (Homo sapiens, UniProt P04629). The data set is described as follows: Inhibitory activity test for Trk kinases (γ-33P-ATP isotope test), TrkA. In kind it is biochemical. To be noted: 33P-ATP 10 μM, 2 h reaction; read-out: Kinase IC50 TrkA. On the procedure:
(§1) Inhibitory Activity Test for Trk Kinases
(§2) In this experiment, the γ-^33P-ATP isotope test was used to test the inhibition effect of a compound on kinases TrkA, TrkB and TrkC, and the half maximal inhibitory concentration IC50 of the inhibitory activity of the compound on the enzymes was obtained.
(§3) A compound was dissolved in 100% DMSO to a particular concentration, and then the resulting solution was gradient-diluted by an automatic loading device to different concentrations of the test samples (DMSO dissolving solutions).
(§4) 3.1. The reaction substrate was diluted using the base reaction buffer;
(§5) 3.2. The kinase was added into the substrate solution and mixed gently and uniformly;
(§6) 3.3. The compounds of different concentrations diluted in 100% DMSO were added into the kinase solution using an automatic loading system, and incubated for 20 min at room temperature;
(§7) 3.4. ^33P-ATP (10 μM, 10 μCi/μl) was added at room temperature to initiate the kinase reaction, and the reaction was carried out for 2 h.
(§8) The reaction solution was subjected to an ion exchange filtration system to remove unreacted ATP and the generated ADP ions during the reaction. Then, the radiometric quantity of ^33P isotope in the substrate was detected.
(§9) The kinase activity in the system with the addition of the inhibitors of different concentrations was calculated from the radiometric quantity, to obtain the inhibitory effect of the compounds with different concentrations on the kinase activity. Fitting was performed using graphpad prism to obtain IC50 values of the compounds for inhibition.

The next data set deals with TrkB (Homo sapiens, UniProt Q16620). The data set is described as follows: Inhibitory activity test for Trk kinases (γ-33P-ATP isotope test), TrkB. Format: biochemical. To be noted: 33P-ATP 10 μM, 2 h reaction; read-out: Kinase IC50 TrkB. On the procedure:
as §1, §2, §3, §4, §5, §6, §7, §8, §9

Another data set has as its target TrkC (Homo sapiens, UniProt Q16288). Description: Inhibitory activity test for Trk kinases (γ-33P-ATP isotope test), TrkC. Format: biochemical. To be noted: 33P-ATP 10 μM, 2 h reaction; read-out: Kinase IC50 TrkC. On the procedure:
as §1, §2, §3, §4, §5, §6, §7, §8, §9

The subject of a further data set is BaF3-tel-NTRK1. The data set is described as follows: Growth inhibition test, CellTiter-Glo, tel-NTRK1-BaF3 cells. In kind it is cell-based. To be noted: 72 hours incubation, read-out: Cell GI50 BaF3-tel-NTRK1. On the procedure:
Growth Inhibition Test for Tel-NTRK1-BaF3 and BaF3-LMNA-NTRK1 Cells
In this experiment, the CellTiter-Glo cell proliferation fluorescence assay was used to test the growth inhibitory effect of a compound on tel-NTRK1-BaF3 and BaF3-LMNA-NTRK1 transgenic cells, and the half maximal growth inhibitory concentration GI50 of the compound on the cells was obtained.
A compound to be tested was dissolved in DMSO to formulate 10 mM of a mother solution. The mother solution was 3× diluted to 10 mM, 3.333 mM, 1.111 mM, 0.370 mM, 0.123 mM, 0.041 mM, 0.014 mM, 0.005 mM, and 0.002 mM. The prepared solutions were each stored in a 0.5 ml sterilized dorft tube (Corning, USA). In addition, an equal volume of DMSO solvent was used as a blank control. With 10 concentration gradients, the plate was stored in vacuum at −20° C.
The tel-NTRK1-BaF3 and BaF3-LMNA-NTRK1 cell lines were cultured with RPMI 1640 (Corning, N.Y., USA)+10% fetal bovine serum (Gibico, Invitrogen, USA). After the cells were thawed, they were cultured for two generations to be tested.
Logarithmic growth phase cells (2000-2500 cells/well) were inoculated in a 12×8 96-well white opaque cell culture plate (Corning 3570, NY, USA) in a volume of 100 μL per well, and a drug was added to the cell plate (0.1 μL/well) at the final concentration of the compound of 10 μM, 3.3 μM, 1.1 μM, 0.37 μM, 0.12 IM, 0.04 μM, 0.014 IM, 0.005 μM, and 0.002 μM (0.4 uL of the drug solution was added to 400 ul of the cell homogenate, and then mixed uniformly, and the resulting mixture was added at 100 ul per well). The plate was incubated at 37° C. in a 5% CO2 incubator for 72 hours, and then 20 μL CellTiter-Glo cell proliferation fluorescence assay reagent was added. The plate was allowed to stand for 10 min, and read in the Envision Plate-Reader. […]
A corresponding […] value RLU of each well was obtained by reading in the Envision Plate-reader. […]
The biochemical activity of the compounds of the present invention was determined by the above experiment, and the measured GI50 values are shown in table 2: […]
On the technique in general: ATP-based viability assays read luminescence as a measure of living cells.

Data set [1] in a line: Metabolic stability in human liver microsomes. The following applies: for Remaining % (60 min) / microsomal CLint at 1 μmol/L: human liver microsomes 0.5 mg/mL, compound 1 μmol/L; for Remaining % (60 min): 37° C.; for Negative control Remaining % (60 min): human liver microsomes, negative control incubation; for half-life at 1 μmol/L: human, liver microsomes; for half-life at 1 μmol/L / microsomal CLint at 1 μmol/L: pH 7.4; for microsomal CLint at 1 μmol/L: read-out: Clint (μL/min/mg protein). Format: in vitro ADME. As for the experimental part: Testing on Metabolic Stability of Compounds in Human Liver Microsomes
The total volume of an incubation system was 250 μL, and 50 mmol/L PBS buffer (pH=7.4) was used to prepare incubation solutions of liver microsomes from various species with a protein concentration of 0.5 mg/mL. Before the start of the incubation, 2.5 μL of a 100 μmol/L compound to be tested was mixed with 197.5 μL of the above incubation solution, pre-incubated in a 37° C. water bath for 5 min, and then added with a 50 μL reducing coenzyme II solution (5 mmol/L) that was likewise pre-incubated for 5 min to start the reaction (in the reaction system, the protein content of liver microsomes from various species was 0.5 g/L, and the final concentration of the compound to be tested was 1 μmol/L), incubated in a 37° C. water bath with shaking, and taken out at 0, 5, 15, 30, and 60 min. 600 μL of a methanol solution of mixed positive and negative internal standards with internal standards Terfenadine (positive ion internal standard, 25 ng/mL) and Tolbutamide (negative ion internal standard, 50 ng/mL) was immediately added to terminate the reaction. The incubation solution after termination was shaken for 2 min and centrifuged (4° C., 16000 r/min) for 10 min, and the supernatant was taken for LC-MS/MS detection to quantitatively analyze the remaining amount of the parent drug. (DMSO<0.1%).
The concentration of the compound at 0 min incubation was regarded as 100%, and the concentrations at other incubation time points were converted into the remaining percentages. The natural logarithm of the remaining percentage at each time point was linearly regressed against the incubation time, and the slope k was calculated. According to the formula T1/2=−0.693/k, the in vitro half-life was calculated. Clearance in liver microsomes (CLint (μL/min/mg protein)=Ln (2)*1000/T1/2 (min)/Protein Conc(mg/ml)).
Test data of metabolic stability of the compounds of the present invention in human liver microsomes are listed in detail in table 3: […]
Background: Liver microsomes are a subcellular fraction often used to study metabolism.

Molecules are shown by their SMILES.

TrkA, sequence (P04629 33-796, species assumed): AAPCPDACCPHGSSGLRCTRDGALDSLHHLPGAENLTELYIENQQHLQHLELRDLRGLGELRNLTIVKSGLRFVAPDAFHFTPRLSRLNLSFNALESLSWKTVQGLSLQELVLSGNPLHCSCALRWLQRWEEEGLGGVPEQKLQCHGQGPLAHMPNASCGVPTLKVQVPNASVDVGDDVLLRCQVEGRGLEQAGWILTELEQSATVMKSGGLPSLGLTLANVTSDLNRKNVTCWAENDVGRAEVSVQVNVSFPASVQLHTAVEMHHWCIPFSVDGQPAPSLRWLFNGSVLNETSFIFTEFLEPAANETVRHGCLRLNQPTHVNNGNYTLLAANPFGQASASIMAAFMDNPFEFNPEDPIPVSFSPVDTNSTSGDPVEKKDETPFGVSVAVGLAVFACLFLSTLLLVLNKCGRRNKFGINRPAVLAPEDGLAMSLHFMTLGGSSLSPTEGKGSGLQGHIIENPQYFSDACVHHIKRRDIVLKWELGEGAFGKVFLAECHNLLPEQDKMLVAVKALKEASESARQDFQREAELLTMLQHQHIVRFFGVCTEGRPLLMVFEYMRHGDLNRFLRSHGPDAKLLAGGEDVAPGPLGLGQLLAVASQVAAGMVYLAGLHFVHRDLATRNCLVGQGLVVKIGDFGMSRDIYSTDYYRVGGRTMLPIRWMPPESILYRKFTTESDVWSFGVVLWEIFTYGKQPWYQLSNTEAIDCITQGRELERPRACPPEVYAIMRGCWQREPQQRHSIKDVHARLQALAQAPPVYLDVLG
TrkC, sequence (Q16288 32-839, species assumed): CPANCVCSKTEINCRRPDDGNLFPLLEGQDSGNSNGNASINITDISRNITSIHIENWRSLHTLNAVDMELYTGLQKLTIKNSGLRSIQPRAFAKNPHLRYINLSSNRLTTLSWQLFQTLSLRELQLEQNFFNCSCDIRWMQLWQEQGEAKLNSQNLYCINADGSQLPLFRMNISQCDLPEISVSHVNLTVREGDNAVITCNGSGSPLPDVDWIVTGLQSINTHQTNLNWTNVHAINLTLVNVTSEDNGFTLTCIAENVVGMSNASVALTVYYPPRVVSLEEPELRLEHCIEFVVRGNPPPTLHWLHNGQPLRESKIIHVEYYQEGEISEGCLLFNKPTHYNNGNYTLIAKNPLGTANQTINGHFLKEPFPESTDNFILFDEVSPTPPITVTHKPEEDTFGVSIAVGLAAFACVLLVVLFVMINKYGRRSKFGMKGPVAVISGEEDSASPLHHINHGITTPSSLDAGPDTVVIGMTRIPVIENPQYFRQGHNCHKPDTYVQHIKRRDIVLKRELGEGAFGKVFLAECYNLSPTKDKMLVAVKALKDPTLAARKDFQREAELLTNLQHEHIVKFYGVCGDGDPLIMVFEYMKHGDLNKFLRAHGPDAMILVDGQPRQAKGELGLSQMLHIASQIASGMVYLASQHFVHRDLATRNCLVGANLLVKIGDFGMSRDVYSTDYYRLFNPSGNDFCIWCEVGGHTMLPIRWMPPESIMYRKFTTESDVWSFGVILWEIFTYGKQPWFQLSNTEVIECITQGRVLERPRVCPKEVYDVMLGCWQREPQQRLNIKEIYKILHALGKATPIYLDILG
TrkB, sequence (Q16620 32-822, species assumed): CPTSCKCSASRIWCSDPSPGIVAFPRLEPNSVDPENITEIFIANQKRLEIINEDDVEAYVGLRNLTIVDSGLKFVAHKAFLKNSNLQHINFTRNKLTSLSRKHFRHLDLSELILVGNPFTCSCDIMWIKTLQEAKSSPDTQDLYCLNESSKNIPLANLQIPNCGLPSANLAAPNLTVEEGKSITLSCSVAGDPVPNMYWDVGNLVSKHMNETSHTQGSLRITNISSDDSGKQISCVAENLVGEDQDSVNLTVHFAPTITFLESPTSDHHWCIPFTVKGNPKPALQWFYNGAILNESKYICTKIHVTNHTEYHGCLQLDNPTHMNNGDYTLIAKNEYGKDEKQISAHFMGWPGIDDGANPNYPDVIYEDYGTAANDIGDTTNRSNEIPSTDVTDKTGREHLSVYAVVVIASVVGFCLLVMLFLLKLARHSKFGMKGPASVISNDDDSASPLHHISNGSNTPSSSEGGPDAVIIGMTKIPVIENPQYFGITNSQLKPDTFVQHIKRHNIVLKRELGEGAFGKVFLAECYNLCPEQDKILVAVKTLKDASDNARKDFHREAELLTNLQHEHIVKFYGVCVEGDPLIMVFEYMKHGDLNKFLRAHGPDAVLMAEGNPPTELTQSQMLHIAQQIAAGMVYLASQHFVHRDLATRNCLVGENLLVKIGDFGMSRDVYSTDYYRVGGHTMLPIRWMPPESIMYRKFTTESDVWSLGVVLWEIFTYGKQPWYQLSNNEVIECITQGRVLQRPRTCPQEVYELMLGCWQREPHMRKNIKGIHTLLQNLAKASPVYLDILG

As to `CC1Cc2ncc(F)cc2[C@H]2CCCN2c2ccn3ncc(c3n2)C(=O)NN1C1CC1` (single isomer, unassigned) [Example 3a, (1^3E,1^4E,2^2R,5R or S)-6-cyclopropyl-3^3-fluoro-5-methyl-6,7-diazepine-1(5,3)-pyrazolo(1,5-a]pyrimidine-3(3,2)-pyridine-2(1,2)-pyrrolidine cyclooctane-8-one], the values for the half-inhibitory concentration (IC50) at TrkA, on TrkB and at TrkC were 2.27 nM, 1.58 nM and 0.46 nM, respectively.
As for `CC1Cc2ncc(F)cc2[C@H]2CCCN2c2ccn3ncc(c3n2)C(=O)NN1C1CC1` (single isomer, unassigned) [Example 3b, (1^3E,1^4E,2^2R,5R or S)-6-cyclopropyl-3^5-fluoro-5-methyl-6,7-diazepine-1(5,3)-pyrazolo(1,5-a]pyrimidine-3(3,2)-pyridine-2(1,2)-pyrrolidine cyclooctane-8-one], the IC50 – broadly, the concentration that inhibits the measured activity by half – on TrkA stood at 2.16 nM; at TrkB, 1.13 nM; at TrkC it was 0.38 nM.
Turning to `CC1Cc2ncc(F)cc2[C@H]2CCCN2c2ccn3ncc(c3n2)C(=O)NN1C` (single isomer, unassigned) [Example 7a, (1^3E,1^4E,2^2R,5R or S)-3^5-fluoro-5,6-dimethyl-6,7-diazepine-1(5,3)-pyrazolo[1,5-a]pyrimidine-3(3,2)-pyridine-2(1,2)-pyrrolidine cyclooctane-8-one], the figures for the half-maximal inhibitory concentration (IC50) at TrkA, at TrkB and on TrkC were 3.2 nM, 4.04 nM and 0.58 nM, respectively.
On the same counts, the results for `CC1Cc2ncc(F)cc2[C@H]2CCCN2c2ccn3ncc(c3n2)C(=O)NN1C` (single isomer, unassigned) [Example 7b, (1^3E,1^4E,2^2R,5R or S)-3^5-fluoro-5,6-dimethyl-6,7-diazepine-1(5,3)-pyrazolo[1,5-a]pyrimidine-3(3,2)-pyridine-2(1,2)-pyrrolidine cyclooctane-8-one] are 2.62 nM, 0.71 nM and 0.19 nM.
For `CCN1NC(=O)c2cnn3ccc(nc23)N2CCC[C@@H]2c2cc(F)cnc2CC1C` (single isomer, unassigned) [Example 8a, (1^3E,1^4E,2^2R,5R or S)-3^5-fluoro-6-ethyl-5-methyl-6,7-diazepine-1(5,3)-pyrazolo[1,5-a]pyrimidine-3(3,2)-pyridine-2(1,2)-pyrrolidine cyclooctane-8-one], in that order: 4.01 nM, 6.19 nM and 0.76 nM.
Take `CCN1NC(=O)c2cnn3ccc(nc23)N2CCC[C@@H]2c2cc(F)cnc2CC1C` (single isomer, unassigned) [Example 8b, (1^3E,1^4E,2^2R,5R or S)-3^5-fluoro-6-ethyl-5-methyl-6,7-diazepine-1(5,3)-pyrazolo[1,5-a]pyrimidine-3(3,2)-pyridine-2(1,2)-pyrrolidine cyclooctane-8-one]: the IC50 worked out at 1.85 nM at TrkA, 1.35 nM at TrkB and 0.34 nM on TrkC.
For `CC1Cc2ncc(F)cc2[C@H]2CCCN2c2ccn3ncc(c3n2)C(=O)NN1C1CC1` (stereo partly drawn) [Example 2, (1^3E,1^4E,2^2R)-6-cyclopropylamino-3^5-fluoro-5-methyl-6,7-diazepine-1(5,3)-pyrazolo[1,5-a]pyrimidine-3(3,2)-azabenzene-2(1,2)-pyrrolidine cyclooctane-8-one], on TrkA, the 50% inhibitory concentration (IC50) worked out at 3.81 nM. Also, the 50% growth inhibitory concentration (GI50) (in general, the concentration at which growth is held to half of that of the control) with BaF3-tel-NTRK1 stood at 18 nM.
In the case of `CN1CCc2ncc(F)cc2[C@H]2CCCN2c2ccn3ncc(c3n2)C(=O)N1` [Example 4, (R,1^3E,1^4E)-3^5-fluoro-6-methyl-6,7-diazepine-1(5,3)-pyrazolo[1,5-a]pyrimidine-3(3,2)-azabenzene-2(1,2)-pyrrolidine cyclooctane-8-one], the IC50 on TrkA amounted to 12.6 nM. In data set [1], the “Remaining % (60 min)” value worked out at 88.39%, the “Negative control Remaining % (60 min)” value is recorded as 108.0%, the half-life (usually how long it takes for the measured level to halve) at 1 μmol/L was found to be 217 min and the microsomal CLint at 1 μmol/L amounted to 6.4 µL/min/mg.
`CCN1CCc2ncc(F)cc2[C@H]2CCCN2c2ccn3ncc(c3n2)C(=O)N1` [Example 5, (R,1^3E,1^4E)-6-ethyl-3^3-fluoro-6,7-diazepine-1(5,3)-pyrazolo[1,5-a]pyrimidine-3(3,2)-azabenzene-2(1,2)-pyrrolidine cyclooctane-8-one]: on TrkA, the half-maximal inhibitory concentration (IC50) was determined as 7.92 nM.
For the molecule `CC(C)N1CCc2ncc(F)cc2[C@H]2CCCN2c2ccn3ncc(c3n2)C(=O)N1` [Example 6, (R,1^3E,1^4E)-3^5-fluoro-6-isopropyl-6,7-diazepine-1(5,3)-pyrazolo[1,5-a]pyrimidine-3(3,2)-pyridine-2(1,2)-pyrrolidine cyclooctane-8-one], the IC50 at TrkA amounted to 2.09 nM; at TrkB, 0.83 nM; on TrkC, 0.29 nM.
On the same counts, the results for `CC(C)CN1CCc2ncc(F)cc2[C@H]2CCCN2c2ccn3ncc(c3n2)C(=O)N1` [Example 9, (R,1^3E,1^4E)-3^5-fluoro-6-isobutyl-6,7-diazepine-1(5,3)-pyrazolo[1,5-a]pyrimidine-3(3,2)-pyridine-2(1,2)-pyrrolidine cyclooctane-8-one] are 2.36 nM, 2.16 nM and 0.32 nM.
On to `C[C@@H]1CCc2ncc(F)cc2[C@H]2CCCN2c2ccn3ncc(c3n2)C(=O)N1` [LOXO-195, reference compound], for which, in data set [1], the “Remaining % (60 min)” value was found to be 6.70%, the “Negative control Remaining % (60 min)” value is on record as 102%, the half-life at 1 μmol/L was 15.3 min and the microsomal CLint at 1 μmol/L amounted to 90.6 µL/min/mg.
